Reference: PubChem BioAssay (NCI)
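These data come from cells grown in 96-well plates and exposed to compound for 48 hours at five concentrations. Abbreviation: GI50, concentration required for 50% inhibition of growth. At the TGI there is no net growth.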

Columns and labels:
Assay in all cases: NCI tumour cell line growth inhibition, 48 h
NCI/ADR-RES ovarian = test system: NCI/ADR-RES ovarian
T-47D breast = test system: T-47D breast
MDA-MB-231 breast = test system: MDA-MB-231 breast
MCF7 breast = test system: MCF7 breast
SNB-78 CNS = test system: SNB-78 CNS
DMS 114 small cell lung = test system: DMS 114 small cell lung
DLD-1 colon = test system: DLD-1 colon
LXFL 529 NSCLC = test system: LXFL 529 NSCLC
M19-MEL melanoma = test system: M19-MEL melanoma

Row | Compound | TGI (NCI/ADR-RES ovarian) [µM] | TGI (T-47D breast) [µM] | TGI (MDA-MB-231 breast) [µM] | TGI (MCF7 breast) [µM] | GI50 (NCI/ADR-RES ovarian) [µM] | GI50 (T-47D breast) [µM] | GI50 (MDA-MB-231 breast) [µM] | GI50 (MCF7 breast) [µM] | TGI (SNB-78 CNS) [µM] | TGI (DMS 114 small cell lung) [µM] | TGI (DLD-1 colon) [µM] | TGI (LXFL 529 NSCLC) [µM] | TGI (M19-MEL melanoma) [µM]
1 | O=C(O)[C@@H]1[C@H](C(=O)O)[C@H](C(=O)O)C[C@@H]1C(=O)O | > 100 | > 100 | > 100 | > 100 | – | – | – | – | – | – | – | – | –
2 | O=C1C=C(NCCNC(=S)Nc2ccccc2)c2nccc3c2c1nc1ccccc13 | > 100 | > 100 | > 100 | > 100 | > 100 | > 100 | 94.5 | 23.3 | – | – | – | – | –
3 | COc1cc2c(c(OC)c1OC)-c1ccc(N)c(=O)cc1[C@@H](NC(C)=O)CC2 | 41.2 | > 100 | – | > 100 | 3.43 | > 100 | – | < 0.01 | – | – | – | – | –
4 | COc1cc(CCN)c2c(c1OC)SSSSS2 | 3.73 | – | 2.92 | – | 1.63 | – | 1.49 | – | – | – | – | – | –
5 | O=C(c1ccc(Cl)cc1)c1ccc(OCCCCCCCCCCOc2ccc(C(=O)c3ccc(Cl)cc3)cc2)cc1 | – | – | – | – | – | – | – | – | > 100 | > 100 | > 100 | – | –
6 | NCCCOCC(=O)O | – | – | – | – | – | – | – | – | > 100 | > 100 | – | > 100 | > 100
7 | COc1ccc(Nc2ncc(Br)c(NCCCNC(=O)C3CCC3)n2)cc1 | 80.5 | 98.7 | 60.3 | 67.5 | 19 | 41.2 | 5.06 | 16.1 | – | – | – | – | –
8 | O=C(Nc1ccc(Cl)cc1Cl)C(=O)C(C(=O)c1ccc2ccccc2c1)C1OC(=O)c2ccccc21 (configuration not stated) | – | – | – | – | – | – | – | – | 78.4 | 46.2 | 30.9 | 17.6 | 30.3
9 | COC(=O)C(C(=O)C(=O)Nc1ccc(C(F)(F)F)cc1[N+](=O)[O-])c1csc(-n2nc(-c3ccccc3)cc2-c2ccccc2)n1 (configuration not stated) | – | – | – | – | – | – | – | – | > 100 | > 100 | – | > 100 | > 100
10 | CC1(C)C(=O)C(C)(C)C1=NN | – | – | – | – | – | – | – | – | > 100 | > 100 | > 100 | > 100 | > 100
11 | CCOC(=O)C1=C(C(=O)c2ccc(C)cc2)C(c2cccc([N+](=O)[O-])c2)C(C(=O)c2ccc(C)cc2)=C(C(=O)OCC)N1 | 39.2 | 8.84 | 29 | > 100 | – | – | – | – | – | – | – | – | –
12 | O=C1c2ccc([N+](=O)[O-])cc2-c2c1c1ccccc1c(=O)n2CCCNCCCNCCCn1c2c(c3ccc([N+](=O)[O-])cc3c1=O)C(=O)c1ccccc1-2 | 63.5 | 7.95 | 2.85 | 4.55 | 7.51 | 2.23 | 0.407 | 0.961 | – | – | – | – | –
13 | OCCCOC(c1ccccc1)(c1ccccc1)c1ccccc1 | – | – | – | – | – | – | – | – | > 100 | > 100 | > 100 | > 100 | > 100
14 | Oc1ccc(C(c2ccc(O)cc2)c2ccc(Cl)cn2)cc1 | 0.284 | 0.0762 | > 100 | 0.545 | 0.0512 | 0.0243 | 28 | 0.0546 | – | – | – | – | –
15 | CCCn1c(SC)nc(COC(=O)NC)c1COC(=O)NC | > 100 | > 100 | > 100 | > 100 | – | – | – | – | – | – | – | – | –
16 | CCCCCCCNc1nc(C(=O)OCC)ncc1-c1ccc(C(F)(F)F)cc1 | > 100 | > 100 | > 100 | > 100 | 34.5 | 28.1 | 33.3 | 28.1 | – | – | – | – | –
17 | O=[N+]([O-])c1ccc(S(=O)Cc2ccccc2)c([N+](=O)[O-])c1 (configuration not stated) | 35.4 | 3.6 | 8.92 | 6.96 | 13.5 | 1.51 | 2.82 | 2.48 | – | – | – | – | –
18 | COc1ccccc1/C=C/[N+](=O)[O-] | 11.6 | 16.9 | 6.93 | 7.99 | 2.92 | 3.17 | 2.06 | 2.43 | – | – | – | – | –
19 | C=C1SC(=Nc2c(C)cc(C)cc2C)N(C(=O)c2sc3ccccc3c2Cl)C12CCCCC2 | > 100 | > 100 | > 100 | > 100 | > 100 | 9.69 | > 100 | > 100 | – | – | – | – | –
20 | CCN(CC)CCNc1ccc([N+](=O)[O-])c2sc3ccccc3c(=O)c12 | 2.72 | 18.9 | 9.15 | 4.74 | 0.586 | 4.4 | 2.29 | 1.27 | – | – | – | – | –
21 | O=C(c1ccc2ccccc2c1)c1c(C(F)(F)F)n([O-])c2cc(F)c(F)cc2[n+]1=O | 11.2 | 6.14 | 3.99 | > 100 | 2.93 | 2.67 | 1.86 | 3.11 | – | – | – | – | –
22 | CCc1n(Cc2ccc3ccccc3n2)cc[n+]1Cc1ccc2ccccc2n1 | > 100 | 0.794 | 4.16 | 11.6 | > 100 | 0.046 | 0.441 | 0.135 | – | – | – | – | –
23 | O=C(/C=C/C12c3ccccc3C(c3ccccc31)C1C(=O)N(c3ccccc3)C(=O)C12)c1ccccc1 (configuration not stated) | > 100 | – | 6.77 | > 100 | 2.23 | – | 2.23 | 1.48 | – | – | – | – | –
24 | COc1ccc(-c2oc3c(OC)c(OC)c(OC)c(O)c3c(=O)c2OC)cc1OC | > 72 | 25.6 | > 100 | > 35.1 | – | – | – | – | – | – | – | – | –
25 | O=C1C(c2c[nH]c3ccccc23)=C(c2c[nH]c3ccccc23)C(=O)N1O | > 25 | > 25 | > 25 | > 25 | > 25 | > 25 | > 19.4 | > 25 | – | – | – | – | –
26 | CCCNCCCC(NC(C)=O)C(=O)NCc1ccccc1 (configuration not stated) | – | – | – | – | – | – | – | – | > 100 | > 100 | > 100 | > 100 | > 100
27 | COc1ccc2c(c1)C(=O)c1c-2n(CCCN=[N+]=[N-])c(=O)c2cc(N(C)C)ccc12 | > 100 | > 100 | > 100 | > 100 | > 100 | 61.3 | > 100 | > 100 | – | – | – | – | –
